Test results reported in publication PMC12155096 (International Journal of Molecular Sciences, 2025).

Assays:
[1] = target: human CYP2C9 (Homo sapiens, UniProt P11712)
[2] = target: human CYP2C19 (Homo sapiens, UniProt P33261)
[3] = target: CYP3A4 (Homo sapiens, UniProt P08684)
[4] = target: T1, human CYP1A2 (Homo sapiens, UniProt P05177)
T1 sequence (P05177 1-516): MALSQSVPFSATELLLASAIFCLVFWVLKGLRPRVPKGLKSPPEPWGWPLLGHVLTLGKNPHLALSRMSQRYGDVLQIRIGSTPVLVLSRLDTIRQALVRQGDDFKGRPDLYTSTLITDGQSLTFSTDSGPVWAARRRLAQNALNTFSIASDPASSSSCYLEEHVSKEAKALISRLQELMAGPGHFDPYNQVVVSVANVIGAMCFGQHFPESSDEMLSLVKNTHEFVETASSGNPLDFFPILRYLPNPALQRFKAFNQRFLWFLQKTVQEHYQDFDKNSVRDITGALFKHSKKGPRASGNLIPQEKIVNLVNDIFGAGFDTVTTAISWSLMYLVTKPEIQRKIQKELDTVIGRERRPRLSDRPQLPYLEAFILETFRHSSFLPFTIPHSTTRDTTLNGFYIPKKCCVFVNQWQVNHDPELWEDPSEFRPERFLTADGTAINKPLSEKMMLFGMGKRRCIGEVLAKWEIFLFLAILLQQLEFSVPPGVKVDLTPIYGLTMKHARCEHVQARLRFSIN

[5] = target: human CYP2D6 (Homo sapiens, UniProt P10635)
Sequence of human CYP2D6 (P10635 whole entry): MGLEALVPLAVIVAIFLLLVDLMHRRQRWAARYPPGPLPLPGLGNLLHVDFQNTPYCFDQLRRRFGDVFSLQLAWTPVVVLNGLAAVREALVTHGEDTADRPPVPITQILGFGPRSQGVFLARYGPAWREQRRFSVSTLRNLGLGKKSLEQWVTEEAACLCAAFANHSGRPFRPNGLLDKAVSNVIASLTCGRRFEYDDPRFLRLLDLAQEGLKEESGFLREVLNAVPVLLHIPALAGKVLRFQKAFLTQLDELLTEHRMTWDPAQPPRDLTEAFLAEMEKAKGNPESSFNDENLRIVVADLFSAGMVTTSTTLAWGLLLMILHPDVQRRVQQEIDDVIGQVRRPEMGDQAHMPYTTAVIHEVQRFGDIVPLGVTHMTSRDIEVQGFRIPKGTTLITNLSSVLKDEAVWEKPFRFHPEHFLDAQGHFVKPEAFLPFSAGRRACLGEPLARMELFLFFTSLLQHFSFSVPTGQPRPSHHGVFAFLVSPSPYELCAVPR

Sequence of CYP3A4 (P08684 whole entry): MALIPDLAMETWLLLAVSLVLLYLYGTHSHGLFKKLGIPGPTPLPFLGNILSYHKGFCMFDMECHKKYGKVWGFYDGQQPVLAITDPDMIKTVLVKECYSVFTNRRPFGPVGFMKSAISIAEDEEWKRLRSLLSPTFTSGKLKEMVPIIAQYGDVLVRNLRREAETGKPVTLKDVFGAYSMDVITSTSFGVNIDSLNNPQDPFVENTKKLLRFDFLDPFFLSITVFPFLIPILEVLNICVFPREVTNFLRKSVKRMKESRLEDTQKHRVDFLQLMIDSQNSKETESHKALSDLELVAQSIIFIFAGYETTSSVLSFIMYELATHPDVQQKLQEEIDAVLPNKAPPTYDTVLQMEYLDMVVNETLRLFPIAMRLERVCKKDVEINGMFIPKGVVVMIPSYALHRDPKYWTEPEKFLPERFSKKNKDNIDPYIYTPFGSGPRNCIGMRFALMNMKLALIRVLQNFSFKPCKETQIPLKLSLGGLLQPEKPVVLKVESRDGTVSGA
Sequence of human CYP2C9 (P11712 whole entry): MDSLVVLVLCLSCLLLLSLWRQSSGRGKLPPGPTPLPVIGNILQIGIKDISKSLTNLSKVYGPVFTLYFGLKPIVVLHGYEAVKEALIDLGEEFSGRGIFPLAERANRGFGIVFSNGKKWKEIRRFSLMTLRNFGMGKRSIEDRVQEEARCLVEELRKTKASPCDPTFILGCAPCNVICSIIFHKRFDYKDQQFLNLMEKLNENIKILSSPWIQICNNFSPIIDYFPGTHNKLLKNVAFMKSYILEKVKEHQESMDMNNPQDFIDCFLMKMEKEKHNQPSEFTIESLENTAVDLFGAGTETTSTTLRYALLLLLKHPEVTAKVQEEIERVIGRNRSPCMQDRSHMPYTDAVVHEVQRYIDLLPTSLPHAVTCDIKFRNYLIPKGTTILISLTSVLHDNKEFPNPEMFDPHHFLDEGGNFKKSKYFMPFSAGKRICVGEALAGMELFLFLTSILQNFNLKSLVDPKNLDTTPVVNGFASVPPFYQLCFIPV
Sequence of human CYP2C19 (P33261 whole entry): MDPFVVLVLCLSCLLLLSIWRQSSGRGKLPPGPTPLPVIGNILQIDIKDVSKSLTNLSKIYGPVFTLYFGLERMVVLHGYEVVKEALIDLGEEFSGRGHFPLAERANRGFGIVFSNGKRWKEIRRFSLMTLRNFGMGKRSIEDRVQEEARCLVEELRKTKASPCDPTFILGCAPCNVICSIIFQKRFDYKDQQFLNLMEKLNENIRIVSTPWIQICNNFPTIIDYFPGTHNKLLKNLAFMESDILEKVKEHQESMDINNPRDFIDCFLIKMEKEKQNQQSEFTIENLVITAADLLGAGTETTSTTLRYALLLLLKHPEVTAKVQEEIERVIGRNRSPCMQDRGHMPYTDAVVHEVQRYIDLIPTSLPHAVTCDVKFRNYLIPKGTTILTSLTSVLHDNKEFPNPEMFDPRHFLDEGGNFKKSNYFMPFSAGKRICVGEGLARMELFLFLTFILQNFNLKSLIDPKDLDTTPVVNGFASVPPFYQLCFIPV

SMILES	CYP2C9 AC50 (half-maximal activity concentration) [1]	CYP2C19 AC50 (half-maximal activity concentration) [2]	AC50 [3]	CYP1A2 AC50 (half-maximal activity concentration) [4]	AC50 [5]	AC50 [1]	AC50 [2]	CYP3A4 AC50 (half-maximal activity concentration) [3]	AC50 [4]	CYP2D6 AC50 (half-maximal activity concentration) [5]
COC(=O)c1ccccc1C(=O)c1ccc(OCCN2CCCCC2)cc1.Cl [Pitofenone hydrochloride]	Inactive	Inactive	15.5 µM	Inactive	14.9 µM	–	–	–	–	–
Nc1ccc([N+](=O)[O-])c(C(F)(F)F)c1 [3-Trifluoromethyl-4-nitroanilide]	–	–	–	–	–	39.1 µM	12.9 µM	Inactive	8.83 µM	Inactive
Cc1cc(O)c(Cl)cc1C [2-Chloro-4,5-dimethylphenol]	–	–	–	–	–	34.3 µM	61.8 µM	Inactive	27.7 µM	Inactive
O=C(CCC1CCN(Cc2ccccc2)CC1)c1ccc2c(c1)NCCCC2.O=C(O)/C=C/C(=O)O [Zanapezil fumerate]	Inconclusive inhibitor	Inactive	3.4 µM	Inconclusive inhibitor	7.12 µM	–	–	–	–	–
C=C(C)C(=O)OCC(O)COc1ccc(C(C)(C)c2ccc(OCC(O)COC(=O)C(=C)C)cc2)cc1 (stereo not shown) [Bisphenol A glycidyl methacrylate]	–	–	3.3 µM	–	37 µM	3.46 µM	7.59 µM	–	63.5 µM	–
CCC(=O)O[C@@H]1C=C2CC[C@@H]3[C@H](CC[C@]4(C)[C@@H](OC(=O)CC)CC[C@@H]34)C2CC1 (stereo partly shown) [Bolandiol dipropionate]	–	Inactive	10.6 µM	Inconclusive inhibitor	–	15.5 µM	–	–	–	Inactive
O=C(O)C[C@H](NC(=O)OCc1ccccc1)C(=O)O [N-[(Benzyloxy)carbonyl]-L-aspartic acid]	Inactive	Inactive	35.5 µM	Inactive	–	–	–	–	–	Inactive
CCOC(=O)c1ccc(N(C)C)cc1 [Parbenate]	–	–	47.9 µM	–	–	31.9 µM	21.6 µM	–	4.68 µM	Inactive
NC(=O)Nc1nc2ccccc2[nH]1 [2-Benzimidazolylurea]	–	–	47.5 µM	–	34.2 µM	60.5 µM	47.2 µM	–	47.2 µM	–
CCCCC(CC)C(=O)[O-].CCCCC(CC)C(=O)[O-].[Ba+2] (stereo not shown) [Barium bis(2-ethylhexanoate)]	Inactive	Inactive	38.5 µM	Inactive	–	–	–	–	–	Inactive
O=C(O)c1ccc(OCCCOc2ccc(C(=O)O)cc2)cc1 [1,3-Bis(4-carboxyphenoxy)propane]	Inactive	Inactive	26.4 µM	Inactive	8.08 µM	–	–	–	–	–
CCCCCCCCS(=O)(=O)Cl [1-Octanesulfonyl chloride]	–	Inconclusive inhibitor	22.9 µM	Inactive	–	28.7 µM	–	–	–	Inconclusive inhibitor
CCCCCC=CCC1CC(=O)OC1=O (stereo not shown) [2-Octen-1-ylsuccinic anhydride]	Inactive	–	31.9 µM	–	–	–	55 µM	–	31.9 µM	Inactive
N.O=C(O)C(F)(F)C(F)(F)C(F)(F)C(F)(F)C(F)(F)C(F)(F)C(F)(F)F [PFOA, ammonium salt]	–	–	76.8 µM	Inactive	–	1.78 µM	60.8 µM	–	–	Inactive
Clc1cnc(Oc2ccc(Oc3ncc(Cl)cc3Cl)cc2)c(Cl)c1	–	Inactive	–	Inactive	–	2.34 µM	–	Inconclusive activator	–	Inactive
CCCCN1C(=O)c2ccccc2C1=O [2-Butyl-1H-isoindole-1,3(2H)-dione]	–	–	25.6 µM	–	–	50.6 µM	26.6 µM	–	2.03 µM	Inactive
CC(=O)O[C@@H]1C[C@H]2[C@@H]3CCc4cc(OC(=O)c5ccccc5)ccc4[C@H]3CC[C@]2(C)[C@H]1OC(C)=O [Estriol benzoate diacetate]	–	Inactive	3.74 µM	Inactive	–	22.8 µM	–	–	–	Inactive
CC(=O)c1cc2ccccc2s1 [2-Acetylbenzo[b]thiophene]	Inactive	Inactive	24.6 µM	–	–	–	–	–	6.92 µM	Inactive
N#CCc1ccc(Cl)cc1Cl [(2,4-Dichlorophenyl)acetonitrile]	Inactive	–	13.3 µM	–	–	–	50.4 µM	–	23.4 µM	Inactive
CCOC(=O)C(C#N)=C(c1ccccc1)c1ccccc1 [Ethyl 2-cyano-3,3-diphenylacrylate]	–	–	7.23 µM	–	–	3.75 µM	4.01 µM	–	1.87 µM	Inconclusive inhibitor
CCCCCCCCCCCSCC(=O)O [3-Thiatetradecanoic acid]	–	Inconclusive inhibitor	87.3 µM	Inconclusive inhibitor	20.6 µM	45.2 µM	–	–	–	–
CC(C)N1C(=O)c2ccccc2C1=O [N-Isopropylphthalimide]	Inconclusive inhibitor	Inactive	57.7 µM	–	–	–	–	–	35.6 µM	Inactive
CC(C)c1ccc2sc3ccccc3c(=O)c2c1 [2-(Propan-2-yl)-9H-thioxanthen-9-one]	–	–	7.71 µM	–	27.5 µM	15.6 µM	13.1 µM	–	7.68 µM	–
OCC(CBr)(CBr)CBr [3-Bromo-2,2-bis(bromomethyl)propanol]	–	–	–	Inactive	–	40.5 µM	38.3 µM	Inactive	–	Inactive
CCc1cnc(C(=O)O)c(C(=O)O)c1 [5-Ethyl-2,3-pyridinedicarboxylic acid]	Inactive	Inactive	20.6 µM	Inactive	–	–	–	–	–	Inconclusive inhibitor
CC(C)(C)c1ccc(C(=O)CCCCl)cc1 [4'-Tert-butyl-4-chlorobutyrophenone]	Inactive	Inactive	21.9 µM	–	–	–	–	–	12 µM	Inactive
